In patent US11723894B2, “Combination product for the treatment of neurological and/or psychiatric disorders” (Consejo Superior de Investigaciones Cientificas (CSIC), priority 2017, dated 2023):

What was measured:
5HT2A = 5HT2A (Homo sapiens, UniProt P28223); details: 5HT2A Antagonist; cited from earlier work
D2 = D2 (Homo sapiens, UniProt P14416); details: D2 Antag; cited from earlier work
[1] = system: hippocampal subgranular neurogenic niche; test: Short-term (4 days) in vivo activation of the hippocampal subgranular neurogenic niche (BrdU); parameters: species or system C57BL/6 mice; details: antagonist 0.2 μg/animal with DMT 0.1 μg/animal
Procedure: Adult male C57BL/6 mice (obtained from Charles River Labs) were injected in the lateral ventricle (coordinates: from bregma, posterior −1 mm, lateral +1.3 mm, ventral +2 mm, according to the atlas of Paxinos and Franklin (Paxinos G, Franklin KBJ. The Mouse Brain in Stereotaxic Coordinates. 4. San Diego: Academic Press; 2012)), using a stereotaxic apparatus (Kopf Instruments, CA) with DMT (0.1 μg/animal), alone or in combination with the selective Sigma-1 BD1063 (BD, 0.2 μg/animal, Sigma, catalog number SML0276), the mixed 5-HT2A/1A receptor antagonist methiothepin (Met, 0.2 μg/animal, Sigma catalog number M149), or the selective 5-HT1A receptor antagonist WAY100635 (WAY, 0.2 μg/animal, ABCAM catalog number ab120550). Prior to the injection, mice were anesthetized by intraperitoneal injection of ketamine (60 mg/kg) and medetomidine (0.125 mg/kg). […] The boundaries of these nervous system regions were determined with reference to internal anatomic landmarks (Paxinos G, Franklin KBJ. The Mouse Brain in Stereotaxic Coordinates. 4. San Diego: Academic Press; 2012). For DG area selection, images were analyzed using computer-assisted image analysis software (Soft Imaging System Corporation, Lakewood, Colo., http://www.soft-imaging.com). Positive cells, which intersected the uppermost focal plane (exclusion plane) and the lateral exclusion boundaries of the counting frames, were not counted. […]

[2] = system: subgranular zone of the hippocampus; test: Long-term (21 days) in vivo neurogenesis in the subgranular zone of the hippocampus (BrdU/NeuN, BrdU/DCX); parameters: species or system C57BL/6 mice; details: antagonist 0.2 μg/animal with DMT 0.1 μg/animal, every other day for 3 weeks
Procedure: Adult male C57BL/6 mice (obtained from Charles River Labs, Barcelona, Spain) were injected every other day for 3 weeks with DMT (0.1 μg/animal), alone or in combination with the selective Sigma-1 BD1063 antagonist (BD, 0.2 μg/animal, Sigma, Catalog number SML0276), the mixed 5-HT2A/1A receptor antagonist methiothepin (Met, 0.2 μg/animal, Sigma, Catalog number M149), or the selective 5-HT1A receptor antagonist WAY100635 (WAY, 0.2 μg/animal, ABCAM catalog number ab120550). On day 1 of treatment, animals were intraperitoneally injected with the proliferation marker 5-bromo-2-deoxyuridine (BrdU, 50 mg/kg, Sigma, Catalog number B5002) and sacrificed on day 21. Following anesthesia, the animals were perfused transcardially with 4% paraformaldehyde, and the brains obtained and post-fixed in the same solution at 4-8° C. overnight. They were subsequently cryoprotected, frozen, and finally cut into 30 μm coronal sections in a cryostat. Free-floating sections were immunostained using immunofluorescence analysis. For BrdU detection, samples were first incubated with 2 M HCl for 30 minutes at 37° C. before blocking 1 hour in PBS containing 5% normal serum, 0.1 M lysine, and 0.1% Triton X-100. Sections were then incubated with anti-BrdU mouse monoclonal antibody (DAKO, Barcelona, Spain, Catalog number M0744) combined with a neuronal marker, anti-neuN rabbit antibody (Abcam, Cambridge, UK. Catalog number ABN78) or an anti-double courtin (DCX) goat antibody (Santa Cruz Biotech. USA) at 4° C. overnight, washed three times and incubated with Alexa Fluor-488 goat anti-mouse and Alexa 647-goat anti-rabbit or -horse anti-goat secondary antibodies (Molecular Probes, Madrid, Spain), respectively, for 1 hour at room temperature. After rinses, sections were mounted with Vectashield.

Sequence of D2 (P14416 whole entry): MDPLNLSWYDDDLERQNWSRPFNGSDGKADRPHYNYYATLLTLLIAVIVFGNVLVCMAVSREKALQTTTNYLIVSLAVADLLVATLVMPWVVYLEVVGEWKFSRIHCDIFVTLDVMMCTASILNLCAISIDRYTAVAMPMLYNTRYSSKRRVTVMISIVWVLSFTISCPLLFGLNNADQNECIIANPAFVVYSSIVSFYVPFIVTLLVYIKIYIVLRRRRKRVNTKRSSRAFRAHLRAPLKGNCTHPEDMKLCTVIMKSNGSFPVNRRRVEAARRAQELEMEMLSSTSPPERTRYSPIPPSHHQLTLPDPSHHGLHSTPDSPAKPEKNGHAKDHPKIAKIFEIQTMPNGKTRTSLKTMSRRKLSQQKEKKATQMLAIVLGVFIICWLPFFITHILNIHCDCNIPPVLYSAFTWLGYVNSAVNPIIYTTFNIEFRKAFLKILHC
Sequence of 5HT2A (P28223 whole entry): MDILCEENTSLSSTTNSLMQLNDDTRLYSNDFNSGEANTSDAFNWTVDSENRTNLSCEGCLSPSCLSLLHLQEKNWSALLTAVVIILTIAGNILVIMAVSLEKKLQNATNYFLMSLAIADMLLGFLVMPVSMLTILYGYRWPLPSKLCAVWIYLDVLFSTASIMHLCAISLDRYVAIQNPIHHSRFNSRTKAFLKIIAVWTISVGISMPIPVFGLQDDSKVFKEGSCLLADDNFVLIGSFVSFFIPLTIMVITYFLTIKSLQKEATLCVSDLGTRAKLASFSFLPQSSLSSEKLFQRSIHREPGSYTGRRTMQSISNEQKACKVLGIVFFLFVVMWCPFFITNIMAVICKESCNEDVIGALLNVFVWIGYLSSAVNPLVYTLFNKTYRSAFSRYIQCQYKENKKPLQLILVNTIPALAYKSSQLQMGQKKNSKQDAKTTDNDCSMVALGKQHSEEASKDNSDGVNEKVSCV

Compound	Ki (5HT2A)	Ki (D2)	blockade of DMT stimulatory effects in vivo [1]	blockade of the DMT neurogenic effect in vivo [2]
CCNC(=O)N1CCN(CCCC(c2ccc(F)cc2)c2ccc(F)cc2)CC1 [Amperozide]	12 nM	140 nM		
CN1CCN(CCc2ccc(Cl)c(Cl)c2)CC1 [BD1063]			completely blocked	blocked
